# From ChEMBL document CHEMBL3046650, “Hydrogenated and Dichiorinated N-Phthaloyl-L-threonines and Their Dehydrated Phthalimides with Root Growth-promoting Activity for Rice Seedings” (J Pestic Sci, 2000)
# Calls of active or inactive are those of the source. No cut-off for these calls is given here.
# Experiments:
# Oryza sativa [1] = assay: Phytotoxicity against Oryza sativa cv. Koshihikari (rice) seedling assessed as shoot growth inhibition; type: organism-based; settings: in vivo
# Oryza sativa [2] = assay: Growth promoting activity in Oryza sativa cv. Koshihikari (rice) seedling shoot at 1 x 10' -5 M; type: functional, organism-based
# Oryza sativa [3] = assay: Phytotoxicity against Oryza sativa cv. Koshihikari (rice) seedling assessed as root necrosis at 1 x 10' -3 M; type: organism-based; settings: in vivo, 1000 µM
# Lactuca sativa [4] = assay: Growth promoting activity in Lactuca sativa cv. Gokuwase-CISCO (lettuce) seedling hypocotyl at 1 x 10' -6 to 1 x 10' -3 M; type: functional, organism-based
# Lactuca sativa [5] = assay: Phytotoxicity against Lactuca sativa cv. Gokuwase-CISCO (lettuce) seedling assessed as root necrosis at 1 x 10' -3 M; type: organism-based; settings: in vivo, 1000 µM
# Lactuca sativa [6] = assay: Phytotoxicity against Lactuca sativa cv. Gokuwase-CISCO (lettuce) seedling assessed as hypocotyl necrosis at 1 x 10' -3 M; type: organism-based; settings: in vivo, 1000 µM
# Oryza sativa [7] = assay: Growth promoting activity in Oryza sativa cv. Koshihikari (rice) seedling root at 1 x 10' -5 M relative to control; type: functional, organism-based
# Oryza sativa [8] = assay: Growth promoting activity in Oryza sativa cv. Koshihikari (rice) seedling root at 1 x 10' -4 M relative to control; type: functional
# Vigna mungo [9] = assay: Phytotoxicity against Vigna mungo (black gram) seedling assessed as hypocotyl growth inhibition at 1 x 10' -6 to 1 x 10' -3 M; type: organism-based; settings: in vivo
# Vigna mungo [10] = assay: Phytotoxicity against Vigna mungo (black gram) seedling assessed as root growth inhibition at 1 x 10' -6 to 1 x 10' -3 M; type: organism-based; settings: in vivo
# Vigna mungo [11] = assay: Growth promoting activity in Vigna mungo (black gram) seedling hypocotyl at 1 x 10' -6 to 1 x 10' -3 M; type: functional, organism-based
# Vigna mungo [12] = assay: Growth promoting activity in Vigna mungo (black gram) seedling root at 1 x 10' -6 to 1 x 10' -3 M; type: functional, organism-based
# [13] = tested on: Brassica rapa subsp. pekinensis; assay: Phytotoxicity against Brassica rapa subsp. pekinensis (Chinese cabbage) cv. Kinshu seedling assessed as root growth inhibition at 1 x 10' -6 to 1 x 10' -3 M; type: organism-based; settings: in vivo
# [14] = tested on: Brassica rapa subsp. pekinensis; assay: Growth promoting activity in Brassica rapa subsp. pekinensis (Chinese cabbage) cv. Kinshu seedling root at 1 x 10' -6 to 1 x 10' -3 M; type: functional, organism-based
# Lactuca sativa [15] = assay: Growth promoting activity in Lactuca sativa cv. Gokuwase-CISCO (lettuce) seedling root at 1 x 10' -6 to 1 x 10' -3 M; type: functional, organism-based
# Lactuca sativa [16] = assay: Phytotoxicity against Lactuca sativa cv. Gokuwase-CISCO (lettuce) seedling assessed as hypocotyl growth inhibition at 1 x 10' -3 M; type: organism-based; settings: in vivo, 1000 µM
# [17] = tested on: Brassica rapa subsp. pekinensis; assay: Growth promoting activity in Brassica rapa subsp. pekinensis (Chinese cabbage) cv. Kinshu seedling root at 1 x 10' -3 M; type: functional, organism-based
# [18] = tested on: Brassica rapa subsp. pekinensis; assay: Phytotoxicity against Brassica rapa subsp. pekinensis (Chinese cabbage) cv. Kinshu seedling assessed as root growth inhibition at 1 x 10' -4 M; type: organism-based; settings: in vivo, 100 µM
# Oryza sativa [19] = assay: Phytotoxicity against Oryza sativa cv. Koshihikari (rice) seedling assessed as root growth inhibition at 1 x 10' -3 M; type: organism-based; settings: in vivo, 1000 µM
SMILES,Activity (Oryza sativa [1]),Activity (Oryza sativa [2]),Activity (Oryza sativa [3]),Activity (Lactuca sativa [4]),Activity (Lactuca sativa [5]),Activity (Lactuca sativa [6]),Activity (Oryza sativa [7]),fold change (FC) (Oryza sativa [8]),Activity (Vigna mungo [9]),Activity (Vigna mungo [10]),Activity (Vigna mungo [11]),Activity (Vigna mungo [12]),Activity [13],Activity [14],Activity (Lactuca sativa [15]),Activity (Lactuca sativa [16]),Activity [17],Activity [18],Activity (Oryza sativa [19])
C/C=C(/C(=O)O)N1C(=O)[C@H]2CCCC[C@H]2C1=O,Non-toxic,Active,Non-toxic,inactive,Toxic,Toxic,inactive,2.1,Non-toxic,Non-toxic,inactive,inactive,Non-toxic,inactive,inactive,–,–,–,–
C/C=C(/C(=O)O)N1C(=O)[C@H]2CC=CC[C@H]2C1=O,–,–,Non-toxic,inactive,Toxic,–,inactive,2.1,Non-toxic,Non-toxic,inactive,inactive,–,–,inactive,Toxic,Active,–,–
C/C=C(/C(=O)O)N1C(=O)C2=C(CCCC2)C1=O,–,Active,Toxic,inactive,Toxic,–,inactive,2.1,Non-toxic,Non-toxic,inactive,inactive,–,–,inactive,Toxic,Active,Toxic,–
C/C=C(/C(=O)O)N1C(=O)c2ccccc2C1=O,–,–,–,inactive,Toxic,–,Active,2.1,Non-toxic,Non-toxic,inactive,inactive,–,–,inactive,Toxic,Active,–,Toxic
C/C=C(/C(=O)O)N1C(=O)[C@H]2CCCC[C@@H]2C1=O (relative stereo),Non-toxic,–,Non-toxic,inactive,Toxic,–,inactive,2.1,Non-toxic,Non-toxic,inactive,inactive,Non-toxic,inactive,inactive,Toxic,–,–,–
"C/C=C(/C(=O)O)N1C(=O)c2cc(Cl)c(Cl)cc2C1=O [4,5-Cl2P-BTEA]",–,–,Non-toxic,inactive,Toxic,Toxic,Active,2.1,Non-toxic,Non-toxic,inactive,inactive,Non-toxic,inactive,inactive,–,–,–,–
"C[C@@H](O)[C@@H](C(=O)O)N1C(=O)[C@H]2CCCC[C@H]2C1=O [CIS-1,2,3,4,5,6-HEXAHYDROPHTHALOYL-L-THREONINE]",Non-toxic,Active,Non-toxic,inactive,Toxic,Toxic,inactive,1.6,Non-toxic,Non-toxic,inactive,inactive,Non-toxic,inactive,inactive,–,–,–,–
"C[C@@H](O)[C@@H](C(=O)O)N1C(=O)[C@H]2CC=CC[C@H]2C1=O [CIS-1,2,3,6-TETRAHYDROPHTHALOYL-L-THREONINE]",–,–,Non-toxic,inactive,Toxic,Toxic,inactive,1.6,Non-toxic,Non-toxic,inactive,inactive,Non-toxic,inactive,inactive,–,–,–,–
C[C@@H](O)[C@@H](C(=O)O)N1C(=O)c2ccccc2C1=O [N PHTHALOYL-L-THREONINE],–,–,–,inactive,Toxic,–,Active,1.6,Non-toxic,Non-toxic,inactive,inactive,Non-toxic,inactive,inactive,Toxic,–,–,Toxic
"C[C@@H](O)[C@@H](C(=O)O)N1C(=O)C2=C(CCCC2)C1=O [N-(3,4,5,6-TETRAHYDROPHTHALOYL)-L-THREONINE]",–,Active,Toxic,inactive,Toxic,–,inactive,1.6,Non-toxic,Non-toxic,inactive,inactive,Non-toxic,inactive,inactive,Toxic,–,–,–
"C[C@@H](O)[C@@H](C(=O)O)N1C(=O)c2cc(Cl)c(Cl)cc2C1=O [N-(4,5-DICHLOROPHTHALOYL)-L-THREONINE]",–,–,Non-toxic,inactive,Toxic,Toxic,Active,1.6,Non-toxic,Non-toxic,inactive,inactive,Non-toxic,inactive,inactive,–,–,–,–
"C[C@@H](O)[C@@H](C(=O)O)N1C(=O)[C@H]2CCCC[C@@H]2C1=O [TRANS-1,2,3,4,5,6-HEXAHYDROPHTHALOYL-L-THREONINE]",Non-toxic,–,Non-toxic,inactive,Toxic,–,inactive,1.6,Non-toxic,Non-toxic,inactive,inactive,Non-toxic,inactive,inactive,Toxic,–,–,–
